The record followed here is US9051240B2, “Substituted 2-[2-(phenyl) ethylamino] alkaneamide derivatives and their use as sodium and/or calcium channel modulators” (Newron Pharmaceuticals S.P.A., priority 2007, dated 2015).

pIC50: −log10 of the molar value.

One assay concerns the target MAO-B (Rattus norvegicus (Rat), UniProt P19643). Description: In vitro MAO-B enzyme activity assay (radioenzymatic, rat brain mitochondria). The assay is classed as biochemical. The following applies: 14C-PEA 0.5 μM. How it is done:
Male Wistar rats (Harlan, Italy weighing 175-200 g) were sacrificed under light anaesthesia and brains were rapidly removed and homogenized in 8 volumes of ice-cold 0.32 M sucrose buffer containing 0.1 M EDTA, pH 7.4. The crude homogenate was centrifuged at 2220 rpm for 10 minutes and the supernatant recovered. The pellet was homogenized and centrifuged again. The two supernatants were pooled and centrifuged at 9250 rpm for 10 minutes at +4° C. The pellet was resuspended in fresh buffer and centrifuged at 11250 rpm for 10 minutes at +4° C. The resulting pellet was stored at −80° C. The enzyme activity was assessed with a radioenzymatic assay using the substrate ^14C-phenylethylamine (PEA) specific for MAO-B. The mitochondrial pellet (500 μg protein) was resuspended in 0.1 M phosphate buffer (pH 7.4). 200 μl of the suspension were added to a 50 μl solution of the test compound or buffer, and incubated for 30 min at 37° C. (preincubation) then the substrate (50 μl) was added. The incubation was carried out for 10 minutes at 37° C. (^14C-PEA, 0.5 μM). The reaction was stopped by adding 0.2 ml of perchloric acid. After centrifugation, the deaminated metabolites were extracted with 3 ml of toluene and the radioactive organic phase containing the neutral and/or acidic metabolites formed as a result of MAO-B activity was measured by liquid scintillation spectrometry at 90% efficiency. The MAO-B activity was expressed as nmoles of substrate transformed/mg protein/min.

The test system of a further assay is TTXs sodium channels. Nature of the assay: TTXs-sodium channel influx assay (fluorescence, ND7/23 cell line). The assay is classed as cell-based, rat. The note with it: ND7/23 cells, veratridine 100 μM; read-out: Na+ influx IC50. How it is done:
ND7/23 rat dorsal root ganglion-derived cell line endogenously expresses a mixed population of TTXs sodium channels. These cells lack of TTXr sodium channels as shown by the absence of their respective transcripts.
ND7/23 cells were grown in DMEM supplemented with 10% FBS and 1 mM sodium piruvate. The cells were seeded at 50,000 cells/well on 96 poly-L-lysine-coated plates and further incubated for 18-24 h before use.
The Membrane Potential Kit Assay (Molecular Devices), based on a negatively charged fluorescent dye able to monitor changes in membrane potential caused by the sodium influx due to the channel opening, was used for the assay.
Cells were incubated with the dye loading for 30 minutes at 25° C. Then, 100 nM of the toxin Anemonia sulcata (used as enhancer of the channel opener response) alone or in the presence of TTX (as reference standard) or test compound were added for further 15 minutes.
The fluorescence (excitation:530 nm, emission: 565 nm wavelength) was measured before and after (40-45 s) the automated injection of the sodium channel opener veratridine (100 μM) using a Victor plate reader (Perkin Elmer).
The inhibition curves were calculated from 5 concentrations, each in triplicate, and the IC50 determined using linear regression analysis.

For assay [1], the system named is mice. Nature of the assay: Maximal electroshock test (MES) in mice. The assay is classed as in vivo. The note with it: for ED50: Mus musculus. An excerpt: The maximal electroshock test (MES) is used commonly in the screening of anti-epileptic drugs in rodent models.
Animals and Apparatus: Male CD1 mice weighing 25 g were used. The procedure described by White et al. (White H. S., Woodhead J. H., Franklin M. R., Swinyard E. A., and Wolf H. H. Antiepileptic Drugs (1995) 4th ed: 99-110, Raven Press, Ltd., New York) was followed. An Ugo Basile electroconvulsive generator (Model ECT UNIT 7801) was used to deliver an electrical stimulus sufficient to produce a hindlimb tonic extensor response in at least 97% of control animals. The stimulus was delivered intra-aurally through clip electrodes in mice (0.7 s of a 40 mA shock, with a pulse train of 80 Hz having a pulse duration of 0.4 ms). The acute effect of compounds administered intraperitoneally (i.p.), subcutaneously (s.c.), intravenously (i.v.) or orally (p.o.) 5-120 minutes before MES induction were examined and compared with a vehicle control group. Ten mice were studied per group. Complete suppression of the hindlimb tonic extensor component of seizures was taken as evidence of anticonvulsant activity.
The compounds of the invention were administered p.o. or i.v., at the doses of 0.1-100 mg/kg.
For orientation: The maximal electroshock test induces tonic seizures with an electrical stimulus.

For assay [2], the system named is mice. Description: Formalin test. The assay is classed as in vivo. The following applies: Mus musculus, po. How it is done: According to a modified protocol from Rosland et al. (Rosland J. H., Tjolsen A., Maehle B., Hole K. Pain (1990) 42: 235-242), mice were injected subcutaneously (s.c.) with 20 μl of 2.7% solution of formalin into the plantar surface of left hindpaw and placed immediately into clear PVC observation chambers (23×12×13 cm). Pain behaviour was quantified by counting the cumulative licking time (s) of the injected paw. Measurements were taken during the early phase (0-5 min) and late phase (20-40 min) after formalin injection (Tjolsen A., Berge O. G., Hunskaar S., Rosland J. H., Hole K. Pain (1992) 51: 5-17).
The test compound was administered p.o. or s.c. 5-45 minutes before formalin injection in a volume of 10 ml/kg body weight to groups of 10 mice per dose. Control group was treated with vehicle.

Chain of MAO-B (P19643 whole entry): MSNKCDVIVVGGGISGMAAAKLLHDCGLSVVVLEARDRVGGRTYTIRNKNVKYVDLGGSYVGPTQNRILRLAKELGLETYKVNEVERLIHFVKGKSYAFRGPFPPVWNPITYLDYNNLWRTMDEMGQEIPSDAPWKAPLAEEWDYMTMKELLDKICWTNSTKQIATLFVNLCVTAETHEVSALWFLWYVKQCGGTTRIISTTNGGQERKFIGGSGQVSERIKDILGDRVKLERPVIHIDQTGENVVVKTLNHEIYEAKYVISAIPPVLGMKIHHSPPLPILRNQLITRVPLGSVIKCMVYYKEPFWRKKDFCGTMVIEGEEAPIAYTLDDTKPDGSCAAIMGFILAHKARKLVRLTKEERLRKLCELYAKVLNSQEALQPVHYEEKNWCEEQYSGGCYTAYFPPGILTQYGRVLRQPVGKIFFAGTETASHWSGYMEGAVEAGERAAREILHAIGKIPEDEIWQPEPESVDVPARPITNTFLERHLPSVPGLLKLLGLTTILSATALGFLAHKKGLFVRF

As for `CCCCOc1cccc(CCNCC(=O)N(C)C)c1.Cl` [2-[2-(3-Butoxyphenyl)-ethylamino]-N,N-dimethylacetamide hydrochloride], the negative logarithm of the IC50 (pIC50) was 3.64 against MAO-B and 5.82 in the assay on TTXs sodium channels. Besides, the ED50 worked out at 0.2 mg/kg in the assay with mice [1] (iv, mice, MES, i.v., read-out: MES ED50 mg/kg i.v.); 4.3 mg/kg with mice [1] (po, mice, MES, p.o., read-out: ED50 (mg/kg p.o.)); 14.9 mg/kg in the assay with mice [2]. In addition, in the assay with mice [1] (mice, MES, 10 mg/kg p.o.), the “% protection 10 mg/kg p.o.” value was 100%.

Consider `C[C@H](NCc1ccc(OCc2ccccc2F)cc1)C(N)=O` [ralfinamide, (S)-(+)-2-[4-(2-fluorobenzyloxy)-benzylamino]-propanamide, reference compound], for which the pIC50 against MAO-B is 6.70; with TTXs sodium channels it was 5.02. The ED50 turned out to be 2.7 mg/kg in the assay with mice [1] (iv, read-out: MES ED50 mg/kg i.v.) and 29.3 mg/kg in the assay with mice [2].

What is called pIC50 is the negative decadic logarithm of the IC50, by convention in mol/L.
